{
  "source": "patent US20120108464A1",
  "about": "“TEST SYSTEMS, METHODS AND USES INVOLVING AS160 PROTEIN” (SANOFI-AVENTIS, priority 2009, published 2012)",
  "key": {"[1]": {"tested_on": "L6-GLUT4myc cells transiently transfected with pCDNA5/TO/GFP", "assay": "Functionality of the T-REx system: tetracycline-inducible GFP expression plasmid", "type": "cell-based, rat", "settings": "doxycycline 1 μg/ml versus absence of doxycycline", "procedure": "FIG. 4: Functionality of the T-Rex system. […]T4myc cells were transiently transfected with […] pCDNA5/TO/GFP. In the absence of doxycycline only a minor number of cells express GFP (A). Addition of doxycycline (1μg/ml) increases the number of GFP positive cells up to about 10 fold (B). L6 cells stably expressing GLUT4myc ([…]T4myc, described in Wang et al. 1998) were subsequently used for the tet-inducible expression of AS160 protein. For this purpose the T-REx system from Invitrogen was used. The regulatory plasmid in this system controls the constitutive expression of the tet-repressor (tet-R) under the control of a CMV (cytomegalovirus) promoter. In the absence of tetracyline (or doxycycline) the repressor binds to specific tetracycline-operator sequences (TetO2) and thereby represses expression. Addition of tetracycline (or doxycycline) induces expression of the protein of interest. To allow a stable integration of the tet-system in […]T4myc cells the tet-repressor was islolated from pCDNA3.1 (+)/TR (Invitrogen) and cloned into the Nhel and Notl sites of pIRESpuro2 (FIG. 3). Subsequently pIRESpuro2/TR was transfected into […]T4myc cells. Clones stably expressing the regulatory plasmid were selected with 0.5 μg/ml puromycin (InvivoGen). Functionality of the tet-repressor was controlled with a tetracycline-inducible GFP expression plasmid (pCDNA5/TO-GFP). […]"}, "[2]": {"tested_on": "L6-GLUT4myc cells containing AS160", "assay": "Uptake of 2-deoxyglucose in response to insulin (Cytostar-T scintillating microplates)", "type": "cell-based, rat", "settings": "FIG. 6", "procedure": "For all examples the L6-GLUT4myc cells containing AS160 were grown in MEMα (PAN) supplemented with 10% fetal calf serum (FCS) (PAA, tet-free), 2 μg/ml blasticidin (Calbiochem), 0.5 μg/ml puromycin (InvivoGen), 200 μg/ml hygromycin (Invitrogen). Expression of AS160 was induced with 1 μg/ml doxycyclin (Sigma). L6-wildtype (wt) (ATCC: CRL-1458) cells were grown in MEMα+GlutaMax (Gibco) supplemented with 10% FCS (PAA, tet-free) and 1% penicillin/streptomycin (PAA). L6-GLUT4myc cells were grown in MEMα+GlutaMax (Gibco) supplemented with 10% FCS (PAA, tet-free), 1% penicillin/streptomycin (PAA) and 2 μg/ml blasticidin (Calbiochem). Expression of AS160 was induced by inbubation of the cells for 48 hours with 1 μg/ml doxycycline (Sigma). All cells were grown at 37° C. and 5% CO2 L6-GLUT4myc cells containing AS160 were incubated in starve medium (MEMα) 3-4 hours prior to each experiment.\nTo examine glucose uptake of the cells, the respective cells were plated in 96 well Cytostar-T scintillating microplates (Amersham/GE). After 48 hours cells were serum-starved (3-4 hours) and treated with the indicated Insuman (human insulin) concentartions a for 20 minutes. […] Nonspecific uptake was determined in the presence of 40 μM cytochalasin B (Calbiochem). […] Uptake of 2-deoxyglucose is measured as counts per […] and presented as fold over basal. […]"}},
  "data": [
    {"molecule": "C[C@H]1c2cccc(O)c2C(=O)C2=C(O)[C@]3(O)C(=O)C(C(N)=O)=C(O)[C@@H](N(C)C)[C@@H]3[C@@H](O)[C@@H]21", "note": "[doxycycline]", "values": [
      {"measurement": "Increase of the number of GFP positive cells", "setting": "[1]", "result": "about 10 fold"}
    ]},
    {"molecule": "insulin: Insuman (human insulin)", "values": [
      {"measurement": "Uptake of 2-deoxyglucose, fold over basal", "setting": "[2]; with expression of AS160 (isoform 1, doxycycline-induced), 100 nM insulin, 20 minutes", "result": "about 6 fold"},
      {"measurement": "Uptake of 2-deoxyglucose, fold over basal (maximum)", "setting": "[2]; without expression of AS160 (isoform 1), insulin 20 minutes", "result": "about 4 fold"}
    ]}
  ]
}
